The values that follow are results of earlier work, collected in patent publication US20260021104A1, “BRILAROXAZINE LIPOSOME COMPOSITION” (Reviva Pharmaceuticals, Inc., priority 2023, published 2026).

One data set deals with 5-HT2A (Homo sapiens, UniProt P28223). To be noted: weak partial agonist or neutral antagonist.
In another data set the test system is 5-HT2B/7. To be noted: antagonist.
Data set [1] concerns the target serotonin transporter (SERT) (Homo sapiens, UniProt P31645).
In a further data set the test system is D2-4 receptors. To be noted: partial agonist.
The next data set has as its target T1, 5-HT1A receptors (Homo sapiens, UniProt P08908).
T1 sequence (P08908 1-422): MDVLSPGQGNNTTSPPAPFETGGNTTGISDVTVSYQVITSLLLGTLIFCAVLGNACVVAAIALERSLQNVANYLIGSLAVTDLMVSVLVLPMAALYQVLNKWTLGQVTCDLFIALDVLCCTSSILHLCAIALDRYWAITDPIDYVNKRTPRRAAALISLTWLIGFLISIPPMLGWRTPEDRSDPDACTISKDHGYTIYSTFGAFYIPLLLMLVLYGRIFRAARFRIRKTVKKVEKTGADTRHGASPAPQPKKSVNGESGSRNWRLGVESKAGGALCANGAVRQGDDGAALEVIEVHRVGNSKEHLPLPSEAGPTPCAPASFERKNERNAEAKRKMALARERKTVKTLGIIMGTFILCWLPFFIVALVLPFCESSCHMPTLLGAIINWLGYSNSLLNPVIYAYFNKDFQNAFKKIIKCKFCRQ
The note with it: partial agonist.

SMILES strings stand for the structures.

serotonin transporter (SERT), sequence (P31645 whole entry, species assumed): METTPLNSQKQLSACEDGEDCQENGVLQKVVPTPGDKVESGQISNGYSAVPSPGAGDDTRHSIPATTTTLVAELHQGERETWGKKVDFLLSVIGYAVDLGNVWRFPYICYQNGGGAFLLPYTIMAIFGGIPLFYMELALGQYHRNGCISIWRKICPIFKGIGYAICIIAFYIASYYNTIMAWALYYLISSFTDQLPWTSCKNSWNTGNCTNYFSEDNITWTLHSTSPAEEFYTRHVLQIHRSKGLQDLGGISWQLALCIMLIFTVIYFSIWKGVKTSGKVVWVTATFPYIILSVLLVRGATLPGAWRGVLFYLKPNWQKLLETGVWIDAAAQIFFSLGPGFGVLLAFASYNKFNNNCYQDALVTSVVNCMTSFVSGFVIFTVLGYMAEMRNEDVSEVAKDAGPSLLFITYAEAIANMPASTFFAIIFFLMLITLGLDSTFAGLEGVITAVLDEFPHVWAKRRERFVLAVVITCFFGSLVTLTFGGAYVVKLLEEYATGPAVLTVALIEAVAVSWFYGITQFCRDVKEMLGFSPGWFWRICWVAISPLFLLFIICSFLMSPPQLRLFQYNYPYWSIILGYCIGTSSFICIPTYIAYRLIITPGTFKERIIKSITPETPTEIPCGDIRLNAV
5-HT2A, sequence (P28223 whole entry, species assumed): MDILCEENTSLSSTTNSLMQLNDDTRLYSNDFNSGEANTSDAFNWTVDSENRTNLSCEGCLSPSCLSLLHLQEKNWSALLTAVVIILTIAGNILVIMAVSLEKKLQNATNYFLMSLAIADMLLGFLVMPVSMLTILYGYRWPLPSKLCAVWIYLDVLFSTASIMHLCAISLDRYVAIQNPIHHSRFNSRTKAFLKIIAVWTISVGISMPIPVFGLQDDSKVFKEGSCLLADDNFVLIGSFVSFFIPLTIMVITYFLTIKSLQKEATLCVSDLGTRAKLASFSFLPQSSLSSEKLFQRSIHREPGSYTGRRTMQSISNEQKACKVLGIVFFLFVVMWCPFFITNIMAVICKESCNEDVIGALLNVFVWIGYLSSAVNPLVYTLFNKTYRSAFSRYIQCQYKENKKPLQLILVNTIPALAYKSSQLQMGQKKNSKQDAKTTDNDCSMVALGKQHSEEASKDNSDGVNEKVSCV

On to `O=C1COc2ccc(OCCCCN3CCN(c4cccc(Cl)c4Cl)CC3)cc2N1` [Brilaroxazine], for which the binding affinity entry at 5-HT2A, with 5-HT2B/7, in the data set with D2-4 receptors and at 5-HT1A receptors was “high binding affinity” in each case. For the same molecule, the affinity entry in data set [1] is on record as “moderate affinity”.
